In publication PMC9081768, “Spectroscopy, Structure, Biomacromolecular Interactions, and Antiproliferation Activity of a Fe(II) Complex With DPA-Bpy as Pentadentate Ligand” (Frontiers in Chemistry, 2022):

Molecular target: T1, human serum albumin (HSA) (Homo sapiens, UniProt P02768)
T1 construct: gene ALB
Test: X-ray crystal structure at […] Å (seven molecules seen in the HSA Fe complex adduct)
Format: binding

T1 sequence (P02768 25-609): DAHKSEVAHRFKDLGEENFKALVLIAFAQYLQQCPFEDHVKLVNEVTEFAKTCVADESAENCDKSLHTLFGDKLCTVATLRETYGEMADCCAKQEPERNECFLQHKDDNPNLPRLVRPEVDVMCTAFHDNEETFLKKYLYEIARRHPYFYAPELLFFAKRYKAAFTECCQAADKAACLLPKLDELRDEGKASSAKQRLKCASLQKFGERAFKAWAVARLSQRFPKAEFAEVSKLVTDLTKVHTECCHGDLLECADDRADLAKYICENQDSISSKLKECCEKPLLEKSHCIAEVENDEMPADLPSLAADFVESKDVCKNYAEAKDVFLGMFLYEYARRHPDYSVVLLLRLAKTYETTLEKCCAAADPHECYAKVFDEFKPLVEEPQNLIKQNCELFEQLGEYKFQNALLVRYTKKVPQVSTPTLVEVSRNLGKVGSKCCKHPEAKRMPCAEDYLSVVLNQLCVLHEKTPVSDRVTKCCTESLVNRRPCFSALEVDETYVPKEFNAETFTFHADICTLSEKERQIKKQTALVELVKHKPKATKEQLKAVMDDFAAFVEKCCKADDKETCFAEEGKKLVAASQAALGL

SMILES: CCCCCCCCCCCCCCCC(=O)O [PA, palmitic acid]
- X-ray crystal structure at 2.4 Å (seven molecules seen in the HSA Fe complex add): seven palmitic acid (PA) molecules are present in the subdomains of I–III
